Source: patent US20210040116A1, “New Polymorphs of Dolutegravir Sodium” (CIPLA LIMITED, priority 2017, published 2021)

Experiments:
[1] = Comparative intrinsic dissolution; format: physicochemical; settings: 0.01M pH 6.8 phosphate buffer containing 0.25% w/v SDS, 37° C., 50 rpm
Source text: The following data illustrates the dissolution of the crystalline form of dolutegravir sodium disclosed in WO2010068253 (i.e. not the hydrate), compared to crystalline Form 1A of the present invention (i.e. crystalline Form 1A of dolutegravir sodium).
Dissolution medium: 0.01M pH 6.8 phosphate buffer containing 0.25% w/v sodium dodecyl sulfate (SDS)
FIG. 5 is a graphical comparison of the intrinsic dissolution of the solid crystalline Form 1A of dolutegravir sodium of the present invention and the crystalline form of dolutegravir sodium disclosed in WO2010068253. The solid line represents the dissolution of solid crystalline Form 1A of dolutegravir sodium of the present invention, with the dotted line representing the dissolution of the crystalline form of dolutegravir sodium disclosed in WO2010068253.

[2] = Bulk density and tapped density (USP <616> method I); format: physicochemical
Source text: Suitable methods for determining the bulk density and tapped density of the crystalline form 1A of dolutegravir sodium of the present invention and the crystalline form of dolutegravir sodium form disclosed in WO2010068253 will be well known to the skilled chemist. For example, USP <616> method I may be used.

| SMILES | % Release ([1]; 5 minutes) | % Release ([1]; 15 minutes) | % Release ([1]; 30 minutes) | % Release ([1]; 60 minutes) | % Release ([1]; 120 minutes) | % Release ([1]; 240 minutes) | % Release ([1]; 360 minutes) | % Release ([1]; 480 minutes) | % Release ([1]; 600 minutes) | % Release ([1]; 720 minutes) | tapped density [2] | bulk density [2] |
| --- | --- | --- | --- | --- | --- | --- | --- | --- | --- | --- | --- | --- |
| C[C@@H]1CCO[C@H]2Cn3cc(C(=O)NCc4ccc(F)cc4F)c(=O)c([O-])c3C(=O)N12.[Na+] [Form 1A, sodium (4R,12aS)-9-{[(2,4,-difluorophenyl)methyl]carbamoyl}-4-methyl-6,8-dioxo-3,4,6,8,12,12a-hexahydro-2H-pyrido[1′,2′:4,5]pyrazino[2,1-b][1,3]oxazin-7-olate] | 26% | 45% | 73% | 66% | 79% | 82% | 81% | 85% | 86% | 82% | 0.7 to 0.8 g/mL |  |
| C[C@@H]1CCO[C@H]2Cn3cc(C(=O)NCc4ccc(F)cc4F)c(=O)c([O-])c3C(=O)N12.[Na+] [crystalline form of dolutegravir sodium disclosed in WO20100] [sodium (4R,12aS)-9-{[(2,4,-difluorophenyl)methyl]carbamoyl}-4-methyl-6,8-dioxo-3,4,6,8,12,12a-hexahydro-2H-pyrido[1′,2′:4,5]pyrazino[2,1-b][1,3]oxazin-7-olate] | 5% | 13% | 20% | 56% | 68% | 74% | 72% | 73% | 73% | 74% |  | 0.2 to 0.3 g/mL |
